Assay results as given in ChEMBL document CHEMBL5579902, “Medullins A-H, Sesquiterpenes from Perenniporia medulla-panis, and Their Cellular Signaling Mechanism in HDF Cells” (J Nat Prod, 2024).
Values belong to the compound of their own block, whether it stands above or below them. Activity calls are given as the source filed them. The calls are words filed in the database; no cut-off is given here.

Key:
NHDF = experiment: Cytotoxicity against HDF cells assessed as reduction in cell viability at 10 uM incubated for 24 to 48 hrs by MTT assay; type: toxicity, cell-based; conditions: human, time 24-48 hrs
[1] = target: Mitogen-activated protein kinase; ERK1/ERK2 (Homo sapiens) (UniProt P27361+P28482); experiment: Induction of ERK1/2 phosphorylation in HDF cells at 10 uM incubated at 0.5 to 24 hrs by Western blot analysis; type: cell-based; conditions: filed as activator, time 0.5-24 hrs
HDF [2] = experiment: Induction of JNK phosphorylation in HDF cells at 10 uM incubated at 0.5 to 24 hrs by Western blot analysis; type: cell-based; conditions: Homo sapiens, filed as activator, time 0.5-24 hrs
HDF [3] = experiment: Induction of p38 phosphorylation in HDF cells at 10 uM incubated at 0.5 to 24 hrs by Western blot analysis; type: cell-based; conditions: Homo sapiens, time 0.5-24 hrs

Chain of Mitogen-activated protein kinase; ERK1/ERK2 (Homo sapiens) (P27361 whole entry, looked up): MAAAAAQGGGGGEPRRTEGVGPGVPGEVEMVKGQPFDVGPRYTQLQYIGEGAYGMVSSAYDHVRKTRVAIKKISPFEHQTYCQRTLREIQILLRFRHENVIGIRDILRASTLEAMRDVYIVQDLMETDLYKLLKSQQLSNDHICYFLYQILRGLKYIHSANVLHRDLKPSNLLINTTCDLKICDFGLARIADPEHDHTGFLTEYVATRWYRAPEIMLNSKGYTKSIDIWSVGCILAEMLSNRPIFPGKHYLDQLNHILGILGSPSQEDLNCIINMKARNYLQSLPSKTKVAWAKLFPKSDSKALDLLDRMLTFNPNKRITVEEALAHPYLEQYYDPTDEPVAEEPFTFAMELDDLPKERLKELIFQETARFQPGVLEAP
Chain of Mitogen-activated protein kinase; ERK1/ERK2 (Homo sapiens) (P28482 whole entry, looked up): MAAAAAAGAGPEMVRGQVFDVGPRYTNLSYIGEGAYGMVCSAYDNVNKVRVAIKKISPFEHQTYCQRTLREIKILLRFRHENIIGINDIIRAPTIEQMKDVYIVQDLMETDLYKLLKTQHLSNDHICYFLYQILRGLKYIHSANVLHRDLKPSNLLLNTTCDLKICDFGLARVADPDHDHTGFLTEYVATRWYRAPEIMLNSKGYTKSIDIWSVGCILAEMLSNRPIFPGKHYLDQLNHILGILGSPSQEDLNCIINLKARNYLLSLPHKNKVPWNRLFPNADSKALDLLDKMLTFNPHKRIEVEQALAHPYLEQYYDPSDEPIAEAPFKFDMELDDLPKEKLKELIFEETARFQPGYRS

Compound: CC(=O)O[C@@H]1[C@H](O)C2=C(C(=O)N([C@@H](CC(C)C)C(=O)O)C2)[C@@]2(C)CCCC(C)(C)[C@H]12
- Activity (NHDF): Non-Toxic
- Activity [1]: Active
- Activity (HDF [2]): Active
- Activity (HDF [3]): inactive

Compound: CC(=O)O[C@@H]1[C@H](O)C2=C(C(=O)N([C@@H](C)C(=O)O)C2)[C@@]2(C)CCCC(C)(C)[C@H]12
- Activity (NHDF): Non-Toxic
- Activity [1]: Active
- Activity (HDF [2]): Active
- Activity (HDF [3]): inactive

Compound: CC(=O)O[C@@H]1[C@H](O)C2=C(C(=O)N([C@@H](Cc3ccccc3)C(=O)O)C2)[C@@]2(C)CCCC(C)(C)[C@H]12
- Activity (NHDF): Non-Toxic
- Activity [1]: Active
- Activity (HDF [2]): Active
- Activity (HDF [3]): inactive

Compound: CC(=O)O[C@@H]1[C@H](O)C2=C(C(=O)N(CC(=O)O)C2)[C@@]2(C)CCCC(C)(C)[C@H]12
- Activity (NHDF): Non-Toxic
- Activity [1]: Active
- Activity (HDF [2]): Active
- Activity (HDF [3]): inactive

More lines, main results first:

- Activity [1]: Active
Compound: CC(=O)O[C@@H]1[C@H](O)C2=C(C(=O)N([C@H](C(=O)O)[C@@H](C)O)C2)[C@@]2(C)CCCC(C)(C)[C@H]12
- Activity (NHDF): Non-Toxic
- Activity (HDF [2]): Active
- Activity (HDF [3]): inactive

- Activity [1]: Active
Compound: CC(=O)O[C@@H]1[C@H](O)C2=C(C(=O)N([C@H](C(=O)O)C(C)C)C2)[C@@]2(C)CCCC(C)(C)[C@H]12
- Activity (NHDF): Non-Toxic
- Activity (HDF [2]): Active
- Activity (HDF [3]): inactive

- Activity [1]: Active
Compound: CC[C@H](C)[C@@H](C(=O)O)N1CC2=C(C1=O)[C@@]1(C)CCCC(C)(C)[C@@H]1[C@H](OC(C)=O)[C@@H]2O
- Activity (NHDF): Non-Toxic
- Activity (HDF [2]): Active
- Activity (HDF [3]): inactive
